Laboratory results as given in patent US4937371A, “Dihydroxynaphthalene derivatives” (Hoffmann-La Roche Inc., priority 1989, dated 1990).

What was measured:
[1] = system: Myeloperoxidase accumulation (rat acetic acid colitis model); experiment: Acetic acid-induced colitis in rats, in vivo; set-up: species or system rat (Sprague-Dawley)
Description: Acetic Acid-Induced Colitis in Rats, In Vivo
The rat acetic acid-induced colitis bioassay has been described by J. E. Krawisz, et al. in Amer. J. Proc. Gastro. Col. Rec. Surg. 31: 11-18 (1980), and by P. Sharon and W. F. Stenson in Gastroenterolgy 88: 55-63 (1985) and 86:453-460 (1984). Acetic acid-induced colitis is characterized by the movement of inflammatory cells into the colon, with the number of such cells in the mucosa being measured by the activity of myeloperoxidase, a marker enzyme for these cells. Positive desirable activity is indicated by a reduction in the high levels of myeloperoxidase caused by acetic acid. Male rats (Sprague-Dawley), weighing 150 to 300 g, were pretreated twice daily for two days with either the vehicle (water, or dimethylsulfoxide) or the test inhibitor compound suspended in water or dissolved in dimethylsulfoxide and orally administered. On the third day, the animals were dosed the same as on the previous two days, anesthetized with metofane, and 2 ml of 2.5% acetic acid was injected by syringe into the colonic lumen, followed immediately by 3 ml of air and a rinse consisting of 3 ml of phosphate-buffered saline (the acetic acid is Present in the lumen for a sufficient period to cause inflammation without producing severe necrosis or irreversible damage). The animals were administered a second dose of the test compound in the same amount about 16 hours later. Twenty four hours after the acetic acid treatment, the animals were sacrificed, the colonic mucosa was surgically removed and homogenized in an aqueous buffer at pH 6 with a Tissumizer or similar device, and myeloperoxidase was measured in the homogenate using o-phenylenediamine as a chromagen, as described by A. Voller, D. E. Bidwell and A. Bartlett in The Enzyme Linked Immunosorbent Assay (ELISA), Zoological Soc., London, 1979, pages 29-30. Control animals were pretreated with the vehicle and saline in place of acetic acid.

[2] = system: LTB4 formation (Δ^5 -lipoxygenase (5-LO) pathway); experiment: Rat peritoneal macrophage assay, in vitro: LTB4 formation; assay type: cell-based; settings: 0.5 h, rat peritoneal macrophages, 30 min incubation, A 23187-stimulated
Description: (§1) RAT PERITONEAL MACROPHAGE ASSAY, IN VITRO
(§2) The rat peritoneal macrophage assay measures the ability of a test compound to influence the release of arachidonic acid (AA) from phospholipid stores in the plasma membrane and the subsequent metabolism of AA by the Δ^5 -lipoxygenase (5-LO) and cyclooxygenase (CO) pathways to the final products excreted by the cells: leukotriene B4 (LTB4, from the 5-LO pathway) and prostaglandin E2 (PGE2, from the CO Pathway).
(§3) Macrophages were obtained from rats by peritoneal lavage with phosphate buffered saline minus Ca^+2 and Mg^+2 (PBS). Cells were washed 3 times with PBS and resuspended in Delbecco's Modified Eagle medium (Gibco Laboratories) containing L-glutamine and D-glucose and supplemented with 10% fetal calf serum. Cells were counted on a Coulter ZBA cell counter and then resuspended to a concentration of 4×10^6 cells/mL. […] The extracellular fluid was removed and ^14 C radioactivity released into this fluid from AA metabolism was measured by liquid scintillation spectroscopy. The amounts of LTB4 and PGE2 were measured in the extracellular fluid by radioimmunoassay with specific antisera. […]
(§4) This assay measures inhibition by the test compounds of the 5-LO and the CO pathways of AA metabolism and this inhibition is expressed as an IC50 for LTB4 and PGE2 formation, respectively.

[3] = system: PGE2 formation (cyclooxygenase (CO) pathway); experiment: Rat peritoneal macrophage assay, in vitro: PGE2 formation; assay type: cell-based; settings: 0.5 h, rat peritoneal macrophages, 30 min incubation, A 23187-stimulated
Description: as §1, §2, §3, §4

[4] = target: T1, Δ^5 -lipoxygenase from rat basophilic leukemia (RBL-1) cells (Rattus norvegicus, UniProt P12527); experiment: In vitro test for Δ^5-lipoxygenase inhibitors (RBL-1 cell supernatant); assay type: biochemical; settings: Δ^5-lipoxygenase from RBL-1 cells; 10 min preincubation at 30° C.; 6.7 μM arachidonic acid; 37° C.; pH 7.2
T1 construct: The Δ^5 -lipoxygenase was derived from the supernatant fraction of lysed RBL-1 cells; endogenous in cells; host or cells: RBL-1 (rat basophilic leukemia) cells, 49,000 g supernatant of the homogenate
T1 sequence (P12527 1-673): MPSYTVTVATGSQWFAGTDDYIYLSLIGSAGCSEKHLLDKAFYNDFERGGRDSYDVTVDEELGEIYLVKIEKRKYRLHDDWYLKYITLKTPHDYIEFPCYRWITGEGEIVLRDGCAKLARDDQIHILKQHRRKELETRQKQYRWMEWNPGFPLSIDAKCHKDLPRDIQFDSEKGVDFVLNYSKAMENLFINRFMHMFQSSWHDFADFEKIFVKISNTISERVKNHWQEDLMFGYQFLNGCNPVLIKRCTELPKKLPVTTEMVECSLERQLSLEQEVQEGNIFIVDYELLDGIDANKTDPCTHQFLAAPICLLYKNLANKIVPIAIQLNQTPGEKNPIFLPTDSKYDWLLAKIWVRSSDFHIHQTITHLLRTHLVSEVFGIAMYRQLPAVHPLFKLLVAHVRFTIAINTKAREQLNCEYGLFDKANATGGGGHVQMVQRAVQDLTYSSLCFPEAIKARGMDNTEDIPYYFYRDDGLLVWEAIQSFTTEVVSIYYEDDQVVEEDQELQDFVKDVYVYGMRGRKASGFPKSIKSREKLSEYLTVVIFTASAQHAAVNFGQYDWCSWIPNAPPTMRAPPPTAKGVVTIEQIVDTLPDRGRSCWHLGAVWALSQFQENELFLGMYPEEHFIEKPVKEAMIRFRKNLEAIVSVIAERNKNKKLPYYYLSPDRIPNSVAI
Method: IN VITRO TEST FOR Δ^5 -LIPOXYGENASE INHIBITORS
Compounds of formula I of the invention were tested for their effect on Δ^5 -lipoxygenase from rat basophilic leukemia (RBL-1) cells. The activity of this enzyme was determined by measuring the catalytic conversion of [1-^14 C]arachidonic acid to [1-^14 C-5-hydroperoxy- 6,8,11,14-eicosatetraenoic acid ([1-^14 C]-5-HPETE) which leads to the formation of the 5-hydroxy derivative ([1-^14 C]-5-HETE). The Δ^5 -lipoxygenase was derived from the supernatant fraction of lysed RBL-1 cells using a modification of the method previously described by Jakschik and Lee [Nature 287:51 (1980)]. Briefly, RBL-1 cells were lysed by homogenization in ice-cold buffer (50 mM Tris-HCl buffer, pH 7.2, containing 1 mM EDTA and 14 μM indomethacin). The homogenate was centrifuged at 4° C. and 49,000 g for 20 minutes and the resulting supernatant fraction was used as the source of Δ^5 -lipoxygenase. […] The ethereal extract containing [1-^14 C]-5-HETE and unreacted substrate analyzed by silica gel TLC using isooctane-methylethyl ketone acetic acid (100:9:1) as the developing solvent. […] The effect of inhibitors on Δ^5 -lipoxygenase activity was determined by preincubating the enzyme for 10 minutes at 30° C. in the presence or absence of various concentrations of the drug prior to addition of substrate. […]

Compound | % Inhibition of Myeloperoxidase Accumulation ([1]; 10 mg/kg p.o.) [%] | % Inhibition of Myeloperoxidase Accumulation ([1]; 1 mg/kg p.o.) [%] | further results
O=C(O)c1ccc(OCCCCCCc2ccc3cc(O)c(O)cc3c2)cc1 [4-[6-(6,7-Dihydroxy-2-naphthalenyl)hexyloxy]benzoic acid] | 68 ± 13 | – | –
CCCc1c(OCCCc2ccc3cc(O)c(O)cc3c2)ccc(C(=O)O)c1O [4-[3-(6,7-Dihydroxy-2-naphthalenyl)propoxy]-2-hydroxy-3-propylbenzoic acid] | – | 21 ± 4 | –
CCCc1c(OCCCCCCc2ccc3cc(O)c(O)cc3c2)ccc(C(=O)O)c1O [4-[6-(6,7-dihydroxy-2-naphthalenyl)hexyloxy]-2-hydroxy-3-propylbenzoic acid] | – | 46 ± 12 | –
CCCc1c(OCCCCc2ccc3cc(O)c(O)cc3c2)ccc(C(=O)O)c1O [4-[4-(6,7-Dihydroxy-2-naphthalenyl)butoxy]-2-hydroxy-3-propylbenzoic acid] | – | – | IC50 [2]: 3000 nM; IC50 [3]: 2000 nM; % Inhibition of Myeloperoxidase Accumulation ([1]; 3 mg/kg p.o.): 82 ± 8%; IC50 [4]: 4.7 nM
CCCc1c(OCCCCc2ccc3c(Cl)c(O)c(O)c(Cl)c3c2)ccc(C(=O)O)c1O [4-[4-(5,8-Dichloro-6,7-dihydroxy-2-naphthalenyl)butoxy]-2-hydroxy-3-propylbenzoic acid] | 71 ± 7 | – | –
O=C(O)c1ccc(OCCCCCCc2ccc3cc(O)c(O)cc3c2)cc1O [4-[6-(6,7-Dihydroxy-2-naphthalenyl)hexyloxy]-2-hydroxybenzoic acid] | – | 65 ± 9 | –
CCCc1c(OCCCCC(=O)c2ccc3cc(O)c(O)cc3c2)ccc(C(=O)O)c1O [4-[[5-(6,7-Dihydroxy-2-naphthalenyl)-5-oxopentyl]oxy]-2-hydroxy-3-propylbenzoic acid] | – | – | % Inhibition of Myeloperoxidase Accumulation ([1]; 30 mg/kg p.o.): 80 ± 18%
CCCc1c(OCCCCCc2ccc3cc(O)c(O)cc3c2)ccc(C(=O)O)c1O [4-[5-(6,7-Dihydroxy-2-naphthalenyl)pentyloxy]-2-hydroxy-3-propylbenzoic acid] | 56 ± 11 | – | –
CCCc1c(OCCc2ccc3cc(O)c(O)cc3c2)ccc(C(=O)O)c1O [4-[2-(6,7-Dihydroxy-2-naphthalenyl)ethoxy]-2-hydroxy-3-propylbenzoic acid] | 60 ± 13 | – | –
CCCc1c(OCCCCCC(=O)c2ccc3cc(O)c(O)cc3c2)ccc(C(=O)O)c1O [4-[[6-(6,7-dihydroxy-2-naphthalenyl)-6-oxohexyl]oxy]-2-hydroxy-3-propylbenzoic acid] | – | – | IC50 [2]: 3000 nM; IC50 [3]: 2000 nM
